pIC50: −log10 of the molar value. Like-named read-outs stand apart in the source and are kept apart here.
What was measured:
[1] = system: RS4;11 cells; experiment: Cell proliferation assay (MTS), RS4;11 cells, 72 h; type: cell-based
How it was run: (§1)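 RS4;11 and DOHH2 cells at 5000 cells/well in RPMI-1640 with 10% FBS were treated with compound at 1.5–10000 nM final, nine points, at 37 °C, 5% CO2. Exposure was 72 h for RS4;11 and 120 h for DOHH2. MTS was added for 2 h, absorbance read at 490/650 nm, and IC50 calculated.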

[2] = system: DOHH2 cells; experiment: Cell proliferation assay (MTS), DOHH2 cells, 120 h; type: cell-based
How it was run: as §1

pIC50 ([1]; Homo sapiens, RS4-11, 72 h)	Compound	pIC50 ([2]; Homo sapiens, DOHH-2, 120 h)	pIC50 [1]	pIC50 [2]
9.00	C[C@H]1CN(CC[C@@H]2COc3cc(S(=O)(=O)NC(=O)c4ccc(N5CCN(CC6=C(c7ccc(Cl)cc7)CC(C)(C)CC6)CC5)cc4Oc4cnc5[nH]ccc5c4)cc([N+](=O)[O-])c3N2)CCN1C [Example 2-37, 2-((1H-pyrrolo[2,3-b]pyridin-5-yl)oxy)-4-(4-((4′-chloro-5,5-dimethyl-3,4,5,6-tetrahydro-[1,1′-biphenyl]-2-yl)methyl)piperazin-1-yl)-N-(((R)-3-(2-((S)-3,4-dimethylpiperazin-1-yl)ethyl)-5-nitro-3,4-dihydro-2H-benzo [b][1,4]oxazin-7-yl)sulfonyl)benzamide]	7.60	–	–
9.00	CC1(C)CCC(CN2CCN(c3ccc(C(=O)NS(=O)(=O)c4cc5c(c([N+](=O)[O-])c4)N[C@H](CCN4CCN(C6COC6)CC4)CO5)c(Oc4cnc5[nH]ccc5c4)c3)CC2)=C(c2ccc(Cl)cc2)C1 [Example 2-38, (R)-2-((1H-pyrrolo[2,3-b]pyridin-5-yl)oxy)-4-(4-((4′-chloro-5,5-dimethyl-3,4,5,6-tetra-hydro-[1,1′-biphenyl]-2-yl)methyl)piperazin-1-yl)-N-((5-nitro-3-(2-(4-(oxetan-3-yl)piperazin-1-yl)ethyl)-3,4-dihydro-2H-benzo [b][1,4]oxazin-7-yl)sulfonyl)benzamide]	7.57	–	–
8.05	C[C@@H]1CN(CC[C@@H]2COc3cc(S(=O)(=O)NC(=O)c4ccc(N5CCN(CC6=C(c7ccc(Cl)cc7)CC(C)(C)CC6)CC5)cc4Oc4cnc5[nH]ccc5c4)cc([N+](=O)[O-])c3N2)CCN1C1COC1 [Example 2-39, 2-((1H-pyrrolo[2,3-b]pyridin-5-yl)oxy)-4-(4-((4′-chloro-5,5-dimethyl-3,4,5,6-tetrahydro-[1,1′-biphenyl]-2-yl)methyl)piperazin-1-yl)-N-(((R)-3-(2-((R)-3-methyl-4-(oxetan-3-yl)piperazin-1-yl)ethyl)-5-nitro-3,4-dihydro-2H-benzo[b][1,4]oxazin-7-yl)sulfonyl) benzamide]	7.48	–	–
7.66	C[C@H]1CN(CC[C@@H]2COc3cc(S(=O)(=O)NC(=O)c4ccc(N5CCN(CC6=C(c7ccc(Cl)cc7)CC(C)(C)CC6)CC5)cc4Oc4cnc5[nH]ccc5c4)cc([N+](=O)[O-])c3N2)CCN1C1COC1 [Example 2-40]	7.44	–	–
8.70	C[C@H]1CN(CC[C@@H]2COc3cc(S(=O)(=O)NC(=O)c4ccc(N5CCN(CC6=C(c7ccc(Cl)cc7)CC(C)(C)CC6)CC5)cc4Oc4cnc5[nH]ccc5c4)cc([N+](=O)[O-])c3N2)CCO1 [Example 2-41, 2-((1H-pyrrolo[2,3-b]pyridin-5-yl)oxy)-4-(4-((4′-chloro-5,5-dimethyl-3,4,5,6-tetrahydro-[1,1′-biphenyl]-2-yl)methyl)piperazin-1-yl)-N-(((R)-3-(2-((S)-2-methylmorpholino)ethyl)-5-nitro-3,4-dihydro-2H-benzo[b][1,4]oxazin-7-yl)sulfonyl)benzamide]	7.64	–	–
8.22	C[C@@H]1CN(CC[C@@H]2COc3cc(S(=O)(=O)NC(=O)c4ccc(N5CCN(CC6=C(c7ccc(Cl)cc7)CC(C)(C)CC6)CC5)cc4Oc4cnc5[nH]ccc5c4)cc([N+](=O)[O-])c3N2)CCO1 [Example 2-42, 2-((1H-pyrrolo[2,3-b]pyridin-5-yl)oxy)-4-(4-((4′-chloro-5,5-dimethyl-3,4,5,6-tetrahydro-[1,1′-biphenyl]-2-yl)methyl)piperazin-1-yl)-N-(((R)-3-(2-((R)-2-methylmorpholino)ethyl)-5-nitro-3,4-dihydro-2H-benzo[b][1,4]oxa-zin-7-yl)sulfonyl)benzamide]	7.42	–	–
–	CC1(C)CCC(CN2CCN(c3ccc(C(=O)NS(=O)(=O)c4cc5c(c([N+](=O)[O-])c4)N[C@@H](CCN=S(C)(C)=O)CO5)c(Oc4cnc5[nH]ccc5c4)c3)CC2)=C(c2ccc(Cl)cc2)C1 [Example 2-43, (S)-2-((1H-pyrrolo[2,3-b]pyridin-5-yl)oxy)-4-(4-((4′-chloro-5,5-dimethyl-3,4,5,6-tetra-hydro-[1,1′-biphenyl]-2-yl)methyl)piperazin-1-yl)-N-((3-(2-((dimethyl(oxo)-l6-sulfanyl-idene)amino)ethyl)-5-nitro-3,4-dihydro-2H-benzo[b][1,4]oxazin-7-yl)sulfonyl)benza-mide]	–	9.00	8.00
7.34	CC1(C)CCC(CN2CCN(c3ccc(C(=O)NS(=O)(=O)c4cc5c(c([N+](=O)[O-])c4)N[C@@H](CCN4CC(O)C4)CO5)c(Oc4cnc5[nH]ccc5c4)c3)CC2)=C(c2ccc(Cl)cc2)C1 [Example 2-44, (S)-2-((1H-pyrrolo[2,3-b]pyridin-5-yl)oxy)-4-(4-((4′-chloro-5,5-dimethyl-3,4,5,6-tetra-hydro-[1,1′-biphenyl]-2-yl)methyl)piperazin-1-yl)-N-((3-(2-(3-hydroxyazetidin-1-yl)eth-yl)-5-nitro-3,4-dihydro-2H-benzo[b][1,4]oxazin-7-yl)sulfonyl)benzamide]	7.29	–	–
7.92	CC1(C)CCC(CN2CCN(c3ccc(C(=O)NS(=O)(=O)c4cc5c(c([N+](=O)[O-])c4)N[C@@H](CCN4CC(C)(O)C4)CO5)c(Oc4cnc5[nH]ccc5c4)c3)CC2)=C(c2ccc(Cl)cc2)C1 [Example 2-45, (S)-2-((1H-pyrrolo[2,3-b]pyridin-5-yl)oxy)-4-(4-((4′-chloro-5,5-dimethyl-3,4,5,6-tetra-hydro-[1,1′-biphenyl]-2-yl)methyl)piperazin-1-yl)-N-((3-(2-(3-hydroxy-3-methylazeti-din-1-yl)ethyl)-5-nitro-3,4-dihydro-2H-ben-zo[b][1,4]oxazin-7-yl)sulfonyl)benzamide]	7.77	–	–
9.00	C[C@@H]1CN(CC[C@H]2COc3cc(S(=O)(=O)NC(=O)c4ccc(N5CCN(CC6=C(c7ccc(Cl)cc7)CC(C)(C)CC6)CC5)cc4Oc4cnc5[nH]ccc5c4)cc([N+](=O)[O-])c3N2)CCN1C [Example 2-46, 2-((1H-pyrrolo[2,3-b]pyridin-5-yl)oxy)-4-(4-((4′-chloro-5,5-dimethyl-3,4,5,6-tetrahydro-[1,1′-biphenyl]-2-yl)methyl)piperazin-1-yl)-N-(((S)-3-(2-((R)-3,4-dimethylpiperazin-1-yl)ethyl)-5-nitro-3,4-dihydro-2H-benzo [b][1,4]oxazin-7-yl)sulfonyl)benzamide]	8.15	–	–
7.66	C[C@H]1CN(CC[C@H]2COc3cc(S(=O)(=O)NC(=O)c4ccc(N5CCN(CC6=C(c7ccc(Cl)cc7)CC(C)(C)CC6)CC5)cc4Oc4cnc5[nH]ccc5c4)cc([N+](=O)[O-])c3N2)CCN1C [Example 2-47, 2-((1H-pyrrolo[2,3-b]pyridin-5-yl)oxy)-4-(4-((4′-chloro-5,5-dimethyl-3,4,5,6-tetrahydro-[1,1′-biphenyl]-2-yl)methyl)piperazin-1-yl)-N-(((S)-3-(2-((S)-3,4-dimethylpiperazin-1-yl)ethyl)-5-nitro-3,4-dihydro-2H-benzo [b][1,4]oxazin-7-yl)sulfonyl)benzamide]	7.92	–	–

— patent US11091478B2 (Fochon Pharmaceuticals, Ltd., priority 2017, dated 2021)
